Source: US10709769B2, “Use of endostatin peptides for the treatment of fibrosis” (University of Pittsburgh—Of the Commonwealth System of …, priority 2009, dated 2020)

What was measured:
[1] = system: human primary skin fibroblasts; test: TGF-β-induced ECM production in primary skin (dermal) fibroblasts, western blot; type: cell-based; conditions: dermal fibroblasts from healthy controls, SSc or morphea patients
Method: Human primary lung and skin fibroblasts were cultured. The explanted lungs of normal organ donors, patients with SSc or IPF, and clinically involved skin of SSc patients, a morphea patient and healthy donors were used for primary fibroblast culture. Approximately 2-cm pieces of peripheral lung and skin were minced and fibroblasts were cultured in Dulbecco's modified Eagle's medium (DMEM; Mediatech, Herndon, Va.) supplemented with 10% FBS, penicillin, streptomycin, and anti-mycotic agent, as previously described (Feghali et al., Arthritis Rheum 1999; 42:1451-7). All the cells were used between passages 3-6.
(§1) Cellular lysates were obtained from cultured fibroblasts as previously described (Pilewski et al., Am J Pathol 2005; 166:399-407). […] Cellular lysates were analyzed by western blot. Signals were detected following incubation with horseradish peroxidase-conjugated secondary antibody and chemiluminescence (Perkin Elmer Life Sciences, Inc., Boston, Mass.). The intensity of individual bands with expected molecular sizes was semi-quantitatively analyzed using the image/J® software available at on the internet (/rsb.info.nih.gov/ij/index.html), and normalized to individual GAPDH intensity. […]

normal lung fibroblasts = test: α-SMA levels in TGF-β-stimulated normal lung fibroblasts; type: cell-based, human; conditions: peptide following TGF-β stimulation
Source text: FIGS. 1A-1F. ECM production in recombinant endostatin- and endostatin-derived peptide-treated fibroblasts in combination with TGF-β stimulation. A: FN and Col1α1 expression in human normal lung fibroblasts (NL) treated with vehicle (V), rE alone, or both with prior TGF-β stimulation. Proteins were detected western blot. GAPDH was used as a loading control for lysates. B: FN and Col1α1 expression of endostatin polypeptide-treated lung fibroblasts following TGF-β stimulation in primary pulmonary fibroblasts from a healthy control, a patient with SSc, and a patient with IPF. […] Intensity of bands was normalized to that of GAPDH and expressed as a ratio to Vehicle (V). […]
as §1

mouse lung = test: Bleomycin-induced pulmonary fibrosis in mice; type: in vivo; conditions: for fibrosis and Masson Trichrome staining: 10 μg/ml intratracheally, lungs harvested 10 days
Method: FIG. 10A-10C. E4 attenuates bleomycin induced lung fibrosis in vivo. A: Sixty μg of bleomycin was administrated intratracheally in combination with DMSO as a vehicle (Bleo) or E-4 (Bleo+E-4; 10 μg/ml). In some mice, E-4 (10 μg/ml) was administered intratracheally (IT) three days following bleomycin treatment (Bleo+E-4L). PBS was used as a vehicle for bleomycin (V). Lungs were harvested 10 days post-treatment. Representative images stained with H&E (left panel) and Masson trichrome (right panel) are representative of 3 independent experiments. Magnification, 100×. […] B: Quantification of acid soluble collagen obtained from mouse lungs treated as in panel C with V, Bleo, Bleo+E-4, and Bleo+E-4L. The levels of collagen are presented as μg/mg (lung) from three independent experiments. Unpaired-t test was used for statistical analysis. * P<0.05. […] For Bleo+E4L, Bleo was administered first, then there was a lag of three days between Bleo and E4 administration).
FIG. 11. E4 attenuates bleomycin induced lung fibrosis in vivo whether administered intraperitoneally (IP) or intratracheally (IT). Bleomycin was administered IT at day 1, and E4 was administered either IP or IT at day 3. Lungs were harvested at day 21. […] Thus E4 is effective at reducing fibrosis irrespective of the route of administration. Results are shown for vehicle alone (V), bleomycin alone (Bleo), bleomycin and E4 administered IP, and bleomycin and E4 administered IT.
E4, a peptide representing the carboxy terminus of human endostatin, can attenuate fibrosis triggered by multiple fibrogenic factors. The anti-fibrotic effects of E4 can be detected whether administered concomitantly with or following the fibrogenic trigger. The efficacy of E4 was confirmed in […] pre-clinical models of fibrosis: a) bleomycin-induced dermal fibrosis in vivo in mouse skin, b) TGF-β induced dermal fibrosis in mouse skin, and c) bleomycin-induced pulmonary fibrosis. E4 peptide or a control peptide (E1; representing the amino terminal region of endostatin) were administered at the same time as TGF-β or bleomycin or 3-4 days following TGF-β or bleomycin. […]
For these studies, fibrosis was assessed by measurement of dermal thickness on H&E skin sections (skin), assessment of collagen levels by Masson Trichrome staining (skin and lung), and measurement of collagen levels by Sircol assay (lung). Furthermore, to confirm the mechanism by which E4 exerts its anti-fibrotic effects, the production of extra-cellular matrix (ECM) components, the levels of enzymes that promote matrix stabilization and thus accumulation and levels of those that degrade ECM components, and levels of transcription factors downstream of the pro-fibrotic triggers were evaluated. Results were assessed using the unpaired t test and the 3-way ANOVA (for the ID1 data).

Substance: H-^133SYCETWRTEAPSATGQASSLLGGRLLGQSAASCHHAYIVLCIENSFMT^180-CONH2 (H-SYCETWRTEAPSATGQASSLLGGRLLGQSAASCHHAYIVLCIENSFMT-NH2; cysteine pairing not given here; UniProt P39060 1704-1751, looked up, fragment) [E4, amino acids 133-180 of human endostatin; differs from E3 by the presence of a carboxy-terminal amide]
- TGF-β-induced ECM production (FN, Col1α1) [1]: reduced
- TGF-β-induced α-SMA levels (normal lung fibroblasts): decreased
- fibrosis and Masson Trichrome staining (mouse lung; concomitantly with bleomycin): marked reduction
- fibrosis and Masson Trichrome staining (mouse lung; three days following bleomycin): marked reduction
- bleomycin induced lung fibrosis (mouse lung; intraperitoneal at day 3, lungs harvested day 21): significant attenuation
- bleomycin induced lung fibrosis (mouse lung; intratracheal at day 3, lungs harvested day 21): significant attenuation
